This is an account of results in patent publication EP1345618B1, “CHLORZOXAZONE FOR THE TREATMENT OF PSORIASIS” (Switch Biotech Aktiengesellschaft, priority 2000, dated 2002).

“Also recorded” adds a separate entry of the source. Where two headings read alike, the source gives them in different places. A value given as a limit tells only on which side of the number the result lay.

Assay type in all cases: cell-based
For data set [1], the system named is HaCaT-Keratinozyten. Briefly: Patch-clamp recording of the membrane potential (Vm) of HaCaT keratinocytes. The note with it: for Depolarisierung auf ein Plateau während der Behandlung mit ATP: other K+ channel blockers, compared with ChTx and Clotrimazol. The protocol:
Um einen Ionenkanal zu identifizieren, der wesentlich bei der Signaltransduktion wundheilungsspezifischer Signale beteiligt ist, wurden HaCaT-Zellen elektrophysiologisch untersucht. Die Anzucht der HaCaT-Keratinozyten erfolgte in DEM mit 10% FRS (Gibco BRL), den Antibiotika (Penicillin/Streptomycin 100 U/ml) zugesetzt worden war. Die Ca^2+-Endkonzentration betrug 1,8 mM. Die Zellen wurden inkubiert bis eine konfluente Zellkultur entstanden war; anschließend wurde das Kulturmedium durch "Standard Bath Solution" (SBS; 130 mM NaCl, 3 mM KCl; 2 mM CaCl2; 2 mM MgCl2; 25 mM HEPES/NaHEPES; 10 mM D-Glukose; pH 7,4) ersetzt und die Schalen an einem inversen Mikroskop (Axiovert, Zeiss) untersucht. Die "Patch"-Pipetten wurden aus Borosilikatröhrchen an einer horizontalen Ausziehvorrichtung (DMZ, Zeitz) nach dem zweistufigen Ausziehverfahren hergestellt. Die Pipetten wurden anschließend mit einer Lösung, die 135 mM Kaliumglukonat, 10 mM KCl, 1,6 mM Na2HPO4, 0,73 mM CaCl2, 1,03 mM MgCl2, 1 mM EGTA, 14 mM HEPES/NaHEPES und […] Nystatin; pH 7,2 enthielt, gefüllt (Ca^2+-Aktivität in der Lösung= 10^-7 M). Der Widerstand dieser "Patch"-Pipetten betrug […] im Bad. Nachdem eine Versiegelung im GΩ-Bereich hergestellt wurde (typischerweise 1,5-2 GΩ) wurde der Verstärker auf Strom-Klemm Modus umgestellt. […] Die elektrophysiologischen Signale wurden mittels eines Axopatch 200 Verstärkers in Verbindung mit einem TL-1 Labmaster Interface und AXOTAPE Software (Axon Instruments) aufgenommen, verstärkt und digitalisiert. Die statistische Auswertung (ein-Weg ANOVA mit Bonferri post-test Vergleich) wurde mit Graphpad prism 2.0 durchgeführt.
Bei Experimenten, bei denen die intrazelluläre Ca^2+-Konzentration durch Blitzphotolyse von "caged IP3" (Calbiochem) erhöht wurde, wurde das "Patch-Clamp Recording" in der Ganzzell-Konfiguration durchgeführt, wobei eine Pipettenlösung enthaltend 120 mM Kaliumglukonat, 20 mM KCl, 1 mM MgCl2, 10 mM HEPES/NaHEPES, 2 mM Na2ATP, 0,3 mM NaGTP (pH 7,2) und 10-100 µM "caged IP3" verwendet wurde. Nach 5-7 min Ganzzell-Aufzeichnung wurde IP3 durch einen UV-Lichtblitz freigesetzt, der durch eine Xenon-Bogen-Lampe (75 W; Anregungsfilter: 330 ± 40 nm), die mit dem Epifluoreszenzport des Mikroskops verbunden war, generiert wurde. Der UV-Lichtstrahl wurde durch das 40-fach Phasenkontrastobjektiv auf die Keratinozyten fokussiert. Die Dauer des Blitzes (1 s) wurde durch einen Uniblitz "Shutter" (Vincent Assoc.) eingestellt.
Bei Experimenten, bei denen die gesamte Lösung, in der die Zellen inkubiert wurden ausgewechselt wurde, wurde ein konischer Plexiglaseinsatz mit mehrfachen Einflußleitungen und einer Ausflußleitung in die Kulturschale eingesetzt, um das Volumen der Ableitkammer auf 1 ml zu reduzieren. Der Zufluß von Flüssigkeit war Schwerkraft-abhängig und wurde durch magnetische Ventile kontrolliert. Der Ausfluß wurde durch das Anlegen eines negativen Drucks mittels einer Vakuumpumpe bewirkt. Die Zugabe von Substanzen erfolgte unter visueller Beobachtung direkt auf die zu untersuchenden Keratinozyten mittels eines ferngesteuerten, magnetgesteuerten Y-Rohrsystem (Durchmesser des Ausflußröhrchens: 100 µm).
Die elektrophysiologischen Ableitungen mittels perforierten "Patches" wurden an HaCaT-Zellen durchgeführt, die zu einem konfluenten Monolayer gewachsen waren.

The subject of data set [2] is HaCaT-Keratinozyten. Briefly: Proliferation by daily count of cells per well. The following applies: subconfluent cells, n=3. As for the experimental part: Um den Effekt der Inhibitoren des hIK1 Kanals, Clotrimazol und Charybdotoxin, zu untersuchen, wurde zu subkonfluent gewachsenen Zellen entweder 10 µM Clotrimazol, 200 nM Charybdotoxin (ChTx) oder 1 mM 1-EBIO zugegeben und jeden Tag die Anzahl Zellen pro well bestimmt.
Wie aus Figur 5 (n=3) ersichtlich ist, inhibierte die Zugabe sowohl eines der beiden Inhibitoren als auch die Zugabe des Aktivators von hIK1 die Proliferation, während das Wachstum der Kontrollzellen, denen keine Modulatoren zugesetzt worden waren, unbeeinträchtigt blieb.

Another data set has as its system HaCaT-Zellen. Briefly: Anti-K10 immunostaining of HaCaT cells (differentiation). The following applies: 1 mM 1-EBIO, 3 days, compared with control cells without 1-EBIO. As for the experimental part:
Dazu wurden proliferierende subkonfluente Zellen, Zellen, die gerade Konfluenz erreicht hatten, und ruhende Zellen (4 Tage nach Konfluenz) untersucht. Die Aktivität dieser Keratinozyten wurde anhand der differenzierungsspezifischen Keratin-10-Expression bestimmt. Dazu wurden die Zellen in eiskaltem PBS gewaschen und mit Aceton/Methanol (1:1) 20 min bei -20°C fixiert. Endogene Peroxidasen wurden mit 1 % H2O2 bei Raumtemperatur blockiert. Nachdem die unspezifischen Bindungsstellen mit 3% BSA in PBS abgesättigt worden waren, wurden die Zellen über Nacht in einer 1:500 Verdünnung des Maus-anti-K10 Antikörpers (DAKO) in 3% BSA in PBS bei 4°C inkubiert und anschließend drei Mal mit PBS und einmal mit 3% BSA in PBS gewaschen. Nach 2 h Inkubation mit einem Peroxidase-gekoppelten anti-Maus Antikörper bei Raumtemperatur wurden die Zellen dreimal mit PBS und einmal mit ddH2O gewaschen. Anschließend wurden die Zellen mit dem Peroxidase Substrat-Kit und 3-Amino-9-ethylcarbazol als chromogenes Substrat (Vector Laboratories) gefärbt. Während die proliferierenden Zellen und die Zellen, die gerade Konfluenz erreicht hatten, keine Färbung aufwiesen, zeigte es sich, daß ein Großteil der postkonfluenten Zellen gefärbt war (Figur 3). […]

Data set [3] has as its system HaCaT Zellen. As to the kind of experiment: Immunoblot of keratinocyte differentiation markers Involucrin, Keratin 1 and Keratin 10. The note with it: 1, 100, 1000 µM; 4 days; control 1% DMSO. In general terms: Immunoblotting shows a protein as a band on a membrane.
Text: Dazu wurden in einer 6-"Well"- Platte 5x10^5 HaCaT Zellen pro "Well" in Medium angezogen. Am nächsten Tag wurde das Medium gewechselt auf Medium, das verschiedene Konzentrationen an 1-EBIO bzw. […] Als Lösungsmittelkontrolle wurde 1% DMSO (Spur "C") in Medium benutzt. Die Zellen wurden 4 Tage lang inkubiert, wobei das Medium täglich ersetzt wurde. Nach 4 Tagen wurden die Proteinkonzentration in den Zelllysaten bestimmt (BCA Assay, Pierce). Gleiche Proteinmengen aus den verschiedenen Lysaten wurden anschliessend mittels Immunoblot gegen die Keratinozytendifferenzierungsmarker Involucrin (1:500, Sigma) sowie Keratin 1 und 10 (1:250, Progen) verglichen (Figur 6).
In data set [4] the test system is HaCaT Zellen. As to the kind of experiment: BrDU incorporation cell proliferation ELISA (A[450 nm]). From the text: Dabei wurde zunächst der Einfluss verschiedener Konzentrationen von 1-EBIO auf die Wachstumsrate von HaCaT Zellen in An- und Abwesenheit von Serum gemessen. Zu diesem Zweck wurden 1x10^4 HaCaT Zellen pro "Well" in einer 96-"Well" Platte 5 Tage lang in Keratinozytenwachstumsmedium (KGM) kultiviert, um den Zellzyklus zu synchronisieren, gefolgt von einer zweitägigen Inkubation verschiedener Konzentrationen an 1-EBIO in KGM (siehe Figuren 7 und 8) in Abwesenheit (Figur 7) und in Anwesenheit (Figur 8) von Serum. […] Als Lösungmittelkontrolle diente 1% DMSO in KGM. Die Zellproliferation wurde mit Hilfe des Einbaus von […] (BrDU) während der Zellteilung gemäß den Angaben des Herstellers gemessen ("The Cell Proliferation ELISA, BrDU, Roche). Der Einbau von BrDU wurde dabei durch die Bestimmung der Absorption bei 450 nm quantifiziert. In Figur 7 und 8 ist jeweils die Absorption (A[450nm]) als Maß für die Proliferationsrate auf der Y-Achse aufgetragen. Eine höhere Absorption spiegelt eine stärkere Proliferation wieder.

Take `CCn1c(=O)[nH]c2cc(Cl)c(Cl)cc21` [DCEBIO, 5,6-dichloro-1-ethyl-1,3-dihydro-2H-benzimidazol-2-on]: in the data set on HaCaT-Keratinozyten [1] (HaCaT Zellen, relative to 1-EBIO), the “Stärke der Depolarisation relativ zu 1-EBIO” value was 300-1000 fach.

For the compound `CCCCCCCCCCCCCC(=O)O[C@@H]1[C@@H](C)[C@@]2(O)[C@@H](C=C(CO)C[C@]3(O)C(=O)C(C)=C[C@@H]23)[C@@H]2C(C)(C)[C@]12OC(C)=O` [PMA], in the data set on HaCaT-Keratinozyten [1], the “Membranpotential (langsame Depolarisierung auf)” value was -32 ± 2 mV. The “Einfluß auf den Effekt von ATP” value in the data set on HaCaT-Keratinozyten [1] (PMA 60 ng/µl, n=4) is on record as “beeinflußte jedoch nicht den Effekt von ATP”.

Consider `NCCc1c[nH]cn1` [Histamin], for which the “elektrophysiologische Antwort im Vergleich zu ATP” value in the data set on HaCaT-Keratinozyten [1] (Histamin 100 µM, n=4) was “quantitativ und kinetisch praktisch identische Antwort”.

Turning to `[Ba+2]` [Ba^2+], the “Depolarisierung auf ein Plateau während der Behandlung mit ATP” value in the data set with HaCaT-Keratinozyten [1] is recorded as “Keiner der anderen getesteten K^+-Kanalblocker (TEA, Ba^2+, und Verapamil) führten zu einer vergleichbaren Depolarisierung auf ein Plateau”.

For the compound `O=P(O)(O)O[C@@H]1[C@H](O)[C@H](O)[C@@H](OP(=O)(O)O)[C@H](OP(=O)(O)O)[C@H]1O` [IP3], the “Spannungsänderung nach Freisetzung von IP3” value in the data set on HaCaT-Keratinozyten [1] (whole-cell, caged-IP3 10-100 µM, UV flash photolysis, n=7) is reported as “schnellen, transienten Depolarisierung, gefolgt von einer Hyperpolarisierung”.

As to `Clc1ccccc1C(c1ccccc1)(c1ccccc1)n1ccnc1` [Clotrimazol], in the data set with HaCaT-Keratinozyten [1], the “Einfluß auf die Repolarisierung unter ATP” value is listed as “Derselbe Effekt”. Also, the “Proliferation (Anzahl Zellen pro well)” value in the data set with HaCaT-Keratinozyten [2] (Clotrimazol 10 µM) was “inhibierten die Proliferation vollständig; also recorded: vollständigen Inhibition”.

Turning to Charybdotoxin, the “Einfluß auf die bestehende ATP-vermittelte Hyperpolarisierung” value in the data set with HaCaT-Keratinozyten [1] (ChTx 100 nM added after ATP, ATP still present, n=2) was “vollständige Umkehrung der Hyperpolarisierung”. Besides, in the data set with HaCaT-Keratinozyten [1] (ChTx 100 nM before ATP, n=4), the “Einfluß auf die Repolarisierung unter ATP” value is “verhinderte ChTx die Repolarisierung vollständig”. Moreover, the “Einfluß auf die ATP-vermittelte Hyperpolarisierung” value with HaCaT-Keratinozyten [1] (ChTx 10-100 nM before ATP, n=15) is recorded as “verhinderte eine Hyperpolarisierung”. For the same compound, the “Inhibition der ATP-vermittelten Hyperpolarisierung” value with HaCaT-Keratinozyten [1] (various concentrations, added before ATP) was “dosisabhängige Inhibition der ATP-vermittelten Hyperpolarisierung”. Also, the “Proliferation (Anzahl Zellen pro well)” value in the data set on HaCaT-Keratinozyten [2] (Charybdotoxin 200 nM) was “die Proliferation verlangsamte; also recorded: nur verlangsamtes Wachstum”.

“Bradykinin (RPPGFSPFR; Bradykinin; UniProt P01042 381-389, looked up)”: the “elektrophysiologische Antwort im Vergleich zu ATP” value in the data set with HaCaT-Keratinozyten [1] (Bradykinin 10 µM, n=3) was “quantitativ und kinetisch praktisch identische Antwort”.

With `CCn1c(=O)[nH]c2ccccc21` [1-EBIO, 1-Ethyl-2-benzimidazolinon], the “transiente Depolarisierung nach ATP” value in the data set with HaCaT-Keratinozyten [1] (ATP 10 µM in the presence of 1-EBIO 1 mM) is listed as “viel stärker war als unter Kontrollbedingungen”. Further, in the data set with HaCaT-Zellen, the “Anteil an K10-gefärbten Zellen (Differenzierung)” value was “signifikant reduzierten Anteil an gefärbten Zellen”. Further, the “Differenzierung (Involucrin, K1, K10)” value in the data set with HaCaT Zellen [3] is on record as “dosisabhängig inhibieren”. Further, in the data set on HaCaT Zellen [4] (1-EBIO, various concentrations, with serum), the “Dosisabhängigkeit der Inhibition der seruminduzierten Proliferation” value is recorded as “dosisabhängig ist und den stärksten Effekt bei einer Konzentration von 1 mM zeigt”. Moreover, in the data set with HaCaT Zellen [4] (KGM without serum, 2 days, 1-EBIO various concentrations, Zoxazolamin 1 mM), the “Zellproliferation ohne Serum” value was “alleine nicht in der Lage sind, die Zellproliferation zu stimulieren”. Further, in the data set with HaCaT Zellen [4] (cells treated with the activators), the “Apoptose / Morphologie der Zellen” value is “keine Anzeichen von Apoptose”. Besides, the “seruminduzierte Proliferation” value with HaCaT Zellen [4] (with 10% FCS, 2 days, 1-EBIO various concentrations, Zoxazolamin 1 mM) is recorded as “in der Lage die seruminduzierte Proliferation zu inhibieren”. In the data set with HaCaT-Keratinozyten [2] (1-EBIO 1 mM), the “Proliferation (Anzahl Zellen pro well)” value is recorded as “inhibierten die Proliferation vollständig; also recorded: vollständigen Inhibition”.

For the compound `CC[N+](CC)(CC)CC` [TEA], the “Depolarisierung auf ein Plateau während der Behandlung mit ATP” value in the data set on HaCaT-Keratinozyten [1] is reported as “Keiner der anderen getesteten K^+-Kanalblocker (TEA, Ba^2+, und Verapamil) führten zu einer vergleichbaren Depolarisierung auf ein Plateau”.

Take Calphostin C: in the data set on HaCaT-Keratinozyten [1] (Calphostin C 50 nM), the “Einfluß auf die ATP-vermittelte Spannungsänderung” value is given as “beeinflußte jedoch ebenfalls nicht die ATP-vermittelte Spannungsänderung” and the “Membranpotential (schwache Hyperpolarisierung auf)” value is reported as -58 ± 3 mV.

With `Nc1ncnc2c1ncn2[C@@H]1O[C@H](COP(=O)(O)OP(=O)(O)OP(=O)(O)O)[C@@H](O)[C@H]1O` [ATP], in the data set on HaCaT-Keratinozyten [1] (1 µM ATP, n=9), the “Reversibilität der Hyperpolarisierung” value is on record as “durch Auswaschen der Lösung rasch reversiblen Prozeß”. In the data set with HaCaT-Keratinozyten [1] (ATP 1-1000 µM perfusion, perforated patch, current clamp, confluent monolayer), the “Änderung des Membranpotentials” value is given as “biphasische Änderung des Membranpotentials, die aus einer kurzen, transienten Depolarisierung gefolgt von einer deutlichen und langanhaltenden Hyperpolarisierung bestand”. Moreover, the “Dauer der Hyperpolarisierung nach ATP-Zugabe” value in the data set with HaCaT-Keratinozyten [1] (ATP ≥ 10 µM, added for 5 min) is ≥ 5 min.
